Measurements from ChEMBL document CHEMBL1914297, “Regulators of G protein signaling (RGS) proteins as drug targets: modulating G-protein-coupled receptor (GPCR) signal transduction” (J Med Chem, 2011).
Where a SMILES comes first, the peptide text is derived from it. Bridges are numbered along the chain shown (N, C = ends).

How the values were obtained:
[1] = molecular target: Regulator of G-protein signaling 4 (Homo sapiens) (UniProt P49798); assay: Inhibition of RGS4 GTPase accelrating activity
Regulator of G-protein signaling 4 (Homo sapiens), sequence (P49798 whole entry, looked up): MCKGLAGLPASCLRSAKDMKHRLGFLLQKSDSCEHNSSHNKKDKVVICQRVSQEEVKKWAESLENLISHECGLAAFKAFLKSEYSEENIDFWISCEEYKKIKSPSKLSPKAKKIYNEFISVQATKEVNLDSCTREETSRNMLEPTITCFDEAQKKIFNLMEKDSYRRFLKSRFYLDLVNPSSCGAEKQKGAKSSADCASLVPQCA

Homo sapiens [2] = species on record: Homo sapiens; assay: Selectivity ratio of IC50 for human RGS4 expressed in Escherichia coli BL21 (DE3) to IC50 for human RGS16 expressed in Escherichia coli BL21 (DE3)
Homo sapiens [3] = species on record: Homo sapiens; assay: Selectivity ratio of IC50 for human RGS4 expressed in Escherichia coli BL21 (DE3) to IC50 for human RGS8 expressed in Escherichia coli BL21 (DE3)
[4] = Selectivity for RGS4 over RGS16
[5] = Selectivity for RGS4 over RGS8

SMILES | INH [1] [µM] | Ratio IC50 (Homo sapiens [2]) | Ratio IC50 (Homo sapiens [3]) | Selectivity ratio [4] | Selectivity ratio [5]
CC[C@H](C)[C@@H]1NC(=O)CNC(=O)[C@H]([C@@H](C)O)NC(=O)[C@@H](NC(=O)[C@H](CCCCN)NC(=O)[C@@H](NC(C)=O)C(C)C)CSSC[C@@H](C(=O)N[C@@H](CCC(=O)O)C(N)=O)NC1=O (Ac-VKCTGICE-NH2; disulfide 3-7) | 26 | – | – | – | –
Cc1cccc(Oc2nc3c(C)cccn3c(=O)c2/C=C(\C#N)c2nc3ccccc3s2)c1 | – | 10 | 10 | – | –
Cc1ccc(-n2sc(=O)n(Cc3ccc(F)cc3)c2=O)cc1 | – | – | – | 100 | 100
Cc1cccn2c(=O)c(/C=C(\C#N)c3nc4ccccc4s3)c(Oc3ccc(F)cc3)nc12 | – | 10 | 10 | – | –
